Measured values: patent US11135187B2, “Compositions and methods for treating diabetic retinopathy” (Augusta University Research Institute, Inc., priority 2017, dated 2021)

How the values were obtained:
albumin [1] = experiment: Western blot of total retinal albumin in Ang II-infused mice (retinal permeability); assay type: in vivo; conditions: Ang II 3 mg/kg/day s.c., 4 weeks, vs vehicle
Procedure: The expression of albumin, ICAM-1 IL-6, GADPH, GLUT-1, and sEH was analyzed by homogenization of tissues or cells. Samples from mice in different treatments as well as human retinal endothelial cells (HRECs) were separated by electrophoresis for 3 h. The proteins were transferred to an enhanced chemiluminescence (ECL) membrane in a transfer buffer. The membranes were blocked for 90 min with 5% nonfat dry milk in Tris-buffered saline. The membranes were incubated with antibody against albumin (1:5000; Bethyl), ICAM-1 (1:2000; Cell Signaling), IL-6 (1:2000; Santa Cruz), GADPH (1:2000; abcam), GLUT-1 (1:10,000; abcam), or sEH (1:500; Santa Cruz). The membranes were incubated with secondary antibody for albumin, ICAM-1, IL-6, GADPH, GLUT-1, or sEH. Chemiluminescent detection using ECL reagent from Millipore Corporation was done on X-ray film. In addition, quantification of the expression levels of these proteins was analyzed with NIH image J software.

albumin [2] = experiment: intravitreal Ang II-induced retinal albumin leakage in diabetic mice; assay type: in vivo; conditions: for intravitreal Ang II-induced retinal albumin leakage in diabetic mice: 11,12-EET 15 μg/kg/day s.c., MS-PPOH 20 mg/kg/day i.p.
Procedure: (§1) One week after mice developed diabetes, diabetic and control mice were assigned to the following groups: Ang II (intravitreal injection with 5 μg/1 μL of Ang II); diabetes+Ang II; diabetes+Ang II+11,12-EET (15 μg/kg/day, s.c.; Alzet); diabetes+Ang II+MS-PPOH (CAS No. 206052-02-0-(N-methylsulfonyl-6-(2-propargyloxyphenyl)hexanamide, a selective EETs blocker; 20 mg/kg/day, i.p); and control. 11,12-EET was used because it potentiates intravitreal Ang II-induced retinal damage (FIGS. 4A-4C); also, MS-PPOH was used in a previous study (Huang, H., Exp Biol Med (Maywood), 231:1744-1752 (2006)).

sEH = experiment: Western blot of sEH protein in tissues of Ang II-infused mice; assay type: in vivo
Procedure: Eight-week-old male B6 mice were treated for 4 weeks with Ang II (3 mg/kg/day, s.c.; […]; Cayman), Ang II (Sigma), or vehicle. […]. The expression of albumin, ICAM-1, IL-6, GADPH, GLUT-1, and sEH was analyzed by homogenization of tissues or cells. Samples from mice in different treatments as well as human retinal endothelial cells (HRECs) were separated by electrophoresis for 3 h. The proteins were transferred to an enhanced chemiluminescence (ECL) membrane in a transfer buffer. The membranes were blocked for 90 min with 5% nonfat dry milk in Tris-buffered saline. The membranes were incubated with antibody against albumin (1:5000; Bethyl), ICAM-1 (1:2000; Cell Signaling), IL-6 (1:2000; Santa Cruz), GADPH (1:2000; abeam), GLUT-1 (1:10,000; abeam), or sEH (1:500; Santa. Cruz). The membranes were incubated with secondary antibody for albumin, ICAM-1, IL-6, GADPH, GLUT-1, or sEH. Chemiluminescent detection using ECL reagent from Millipore Corporation was done on X-ray film. In addition, quantification of the expression levels of these proteins was analyzed with NIH image J software.
Male mice were treated for 4 weeks with Ang II (3 mg/kg/day, s.c.; Alzet)+telmisartan, a selective AT1 antagonist (2.5 mg/kg/day in drinking water; Cayman), Ang II, or vehicle.
(§2) The expression of albumin, ICAM-1, IL-6, GADPH, GLUT-1, and sEH was analyzed by homogenization of tissues or cells. Samples from mice in different treatments as well as human retinal endothelial cells (HRECs) were separated by electrophoresis for 3 h. The proteins were transferred to an enhanced chemiluminescence (ECL) membrane in a transfer buffer. The membranes were blocked for 90 min with 5% nonfat dry milk in Tris-buffered saline. The membranes were incubated with antibody against albumin (1:5000; Bethyl), ICAM-1 (1:2000; Cell Signaling), IL-6 (1:2000; Santa Cruz), GADPH (1:2000; abcam), GLUT-1 (1:10,000; abcam), or sEH (1:500; Santa Cruz). The membranes were incubated with secondary antibody for albumin, ICAM-1, IL-6, GADPH, GLUT-1, or sEH. Chemiluminescent detection using ECL reagent from Millipore Corporation was done on X-ray film. In addition, quantification of the expression levels of these proteins was analyzed with NIH image J software.

[3] = blood pressure in Ang II-induced hypertension; assay type: in vivo, mice; conditions: Ang II 3 mg/kg/day s.c., 4 weeks, vs vehicle
[4] = blood glucose levels in diabetic mice; assay type: in vivo; conditions: diabetic mice + Ang II; vs. 483±122 without treatment; not affected
Procedure: as §1

GLUT-1 = GLUT-1 expression in HRECs under HG and hypoxia; assay type: cell-based, human; conditions: HG (25 mM D-Glucose) + CO (CoCl2 hypoxia)
Procedure: as §2, with “(1:2000; abeam),” for “(1:2000; abcam),”, “(1:10,000; abeam),” for “(1:10,000; abcam),”, “(1:500; Santa.” for “(1:500; Santa”
Methods and Materials HRECs were subjected to L-glucose (osmotic control), L-Glu+hypoxia (CoCl2, 5 μM; CO), HG (25 mM of D-Glucose), or HG+CO.

albumin [5] = experiment: intravitreal hVEGF-induced retinal albumin leakage; assay type: in vivo; conditions: 11,12-EET 15 μg/kg/day s.c. one week; sEH KO vs sEH (+/+) mice
Procedure: sEH (−/−) and sEH (+/+) mice were treated with 11, 12-EET (15 μg/kg/day, s.c.; Alzet) or a vehicle for one week, then injected with hVEGF.

albumin [6] = experiment: intravitreal Ang II-induced retinal albumin leakage; assay type: in vivo, mice; conditions: for intravitreal Ang II-induced retinal albumin leakage: EET 15 μg/kg/day s.c., Ang II intravitreal on day 3, leakage significant only with 11,12-EET
Procedure: B6 Mice were injected mice with Ang II (1 or 5 μg per eye) or vehicle assayed for albumin leakage. The expression of albumin was used as the index of leakage assay. Mice were treated with 11, 12-EET (15 μg/kg/day, s.c.; Alzet: Cayman), 14,15-EET (15 μg/kg/day, s.c.; Alzet; Cayman), or vehicle. 11,12-EET and 14,15-EET were used because they are the major products of cytochrome P450 (CYP) epoxygenases. On day 3 after treatment, mice were intravitreally injected with Ang II (5 μg/μl).

[7] = DIRECT trial, oral treatment; cited from earlier work
[8] = EUCLID trial, 530 participants, after two years of treatment; cited from earlier work

Ang II: angiotensin II, produced from Ang I by angiotensin-converting enzyme (DRVYIHPF; Angiotensin-2; UniProt P01019 25-32, looked up)
total retinal albumin (albumin [1]): did not affect total retinal albumin | albumin leakage (blood retinal barrier disruption) in diabetes (albumin [2]; intravitreal Ang II 5 μg/1 μL, diabetic mice): significant increases in albumin leakage | retinal sEH protein levels, elevation vs vehicle group (sEH; retina, Ang II 3 mg/kg/day s.c., 4 weeks): 2 fold | retinal expression of sEH (sEH; retina, Ang II infusion 3 mg/kg/day s.c., 4 weeks (Example 4)): increased | blood pressure [3]: became hypertensive

CCCCC/C=C\C[C@H]1O[C@H]1C/C=C\C/C=C\CCCC(=O)O [11,12-EET]
intravitreal Ang II-induced retinal albumin leakage in diabetic mice (albumin [2]): increased | blood glucose levels [4]: 528 ± 53 mg/dL | GLUT-1 expression in HRECs (GLUT-1): promoted GLUT-1 expression | effects of 11,12-EET on intravitreal hVEGF-induced retinal vascular leakage (albumin [5]): potentiated | intravitreal Ang II-induced retinal albumin leakage (albumin [6]): promoted | potency in potentiating intravitreal Ang II-induced retinal damage (albumin [6]; comparison of the two EETs): more potent than 14,15-EET

CCOc1nc2cccc(C(=O)O)c2n1Cc1ccc(-c2ccccc2-c2nnn[nH]2)cc1 [candesartan]
incidence of diabetic retinopathy [7]: decreased the incidence of diabetic retinopathy | progression of established diabetic retinopathy [7]: did not reduce the progression of established diabetic retinopathy

NCCCC[C@H](N[C@@H](CCc1ccccc1)C(=O)O)C(=O)N1CCC[C@H]1C(=O)O [Lisinopril]
reduction of progression of DR [8]: 50% | reduction of progression to proliferative DR [8]: 80%

CCCCCC1OC1C/C=C\C/C=C\C/C=C\CCCC(=O)O (stereo not shown) [14,15-EET]
GLUT-1 expression in HRECs (GLUT-1): promoted GLUT-1 expression | intravitreal Ang II-induced retinal albumin leakage (albumin [6]): promoted

CCCc1nc2c(C)cc(-c3nc4ccccc4n3C)cc2n1Cc1ccc(-c2ccccc2C(=O)O)cc1 [telmisartan]
Ang II-induced sEH expression in the heart (sEH; heart, Ang II + telmisartan 2.5 mg/kg/day in drinking water, 4 weeks): attenuated | Ang II-induced sEH expression in the kidney (sEH; kidney, Ang II + telmisartan 2.5 mg/kg/day in drinking water, 4 weeks): attenuated | Ang II-induced retinal expression of sEH (sEH; retina, Ang II + telmisartan 2.5 mg/kg/day in drinking water, 4 weeks): reversed

C#CCOc1ccccc1CCCCCC(=O)NS(C)(=O)=O [MS-PPOH, N-methylsulfonyl-6-(2-propargyloxyphenyl)hexanamide]
intravitreal Ang II-induced retinal albumin leakage in diabetic mice (albumin [2]): decreased | blood glucose levels [4]: 502 ± 57 mg/dL
